Reference: US12018021B2 (UCB Biopharma SRL, priority 2018, dated 2024)

What follows are compounds tested against IgE-Tb / sFcεRIα-Y131A-AF488 (Homo sapiens, UniProt P01854, N146Q/N252Q) (assay: IgE-Tb / sFcεRIα-Y131A-AF488 FRET assay (protocol for examples 234 to 501)). Conditions: examples 234 to 501: compound with IgE-Tb 30 minutes before sFcεRIα-Y131A-AF488, incubated 18 hours at room temperature; read-out: Y131A FRET IC50 range.
Type: binding
Outline: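 Read-out is the 520/490 nm emission ratio (337 nm excitation) after 18 h at room temperature, background subtracted, fitted four-parameter for IC50. Final reagents: 5 nM IgE-Tb, preincubated 30 min with compound (top typically 10 μM, 2% DMSO, 3-fold 10-point), plus 25 nM sFcεRIα-Y131A-AF488.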

IgE-Tb / sFcεRIα-Y131A-AF488, sequence (P01854 whole entry N146Q/N252Q): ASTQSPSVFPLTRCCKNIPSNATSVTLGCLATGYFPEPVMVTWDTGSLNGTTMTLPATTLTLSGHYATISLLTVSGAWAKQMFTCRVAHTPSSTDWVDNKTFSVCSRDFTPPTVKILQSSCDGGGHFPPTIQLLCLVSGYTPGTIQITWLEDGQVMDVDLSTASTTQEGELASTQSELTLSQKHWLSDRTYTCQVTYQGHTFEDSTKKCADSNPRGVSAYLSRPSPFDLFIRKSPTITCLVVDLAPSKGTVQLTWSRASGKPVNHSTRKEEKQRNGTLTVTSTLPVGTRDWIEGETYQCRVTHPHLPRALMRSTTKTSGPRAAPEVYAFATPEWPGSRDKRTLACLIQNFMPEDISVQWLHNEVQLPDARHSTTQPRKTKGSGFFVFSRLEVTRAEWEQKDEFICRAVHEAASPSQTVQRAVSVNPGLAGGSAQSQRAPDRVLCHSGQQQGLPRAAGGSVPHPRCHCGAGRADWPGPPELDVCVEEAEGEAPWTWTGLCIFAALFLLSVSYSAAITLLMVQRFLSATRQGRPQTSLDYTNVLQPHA

SMILES | IC50
Cn1nc(C(F)F)cc1Nc1nncn1[C@H]1CCc2sc(NC(=O)[C@@H]3CC34CC4)c(C(=O)NCC3CC3)c2C1 (relative stereo) [Example 311, (5S)—N-(cyclopropylmethyl)-5-[3-[[5-(difluoromethyl)-2-methyl-pyrazol-3-yl]amino]-1,2,4-triazol-4-yl]-2-[[(2R*)-spiro[2.2]pentane-2-carbonyl]amino]-4,5,6,7-tetrahydrobenzothiophene-3-carboxamide [* or S]] | < 1000 nM
Cn1nc(Cl)cc1Nc1nncn1[C@H]1CCc2sc(NC(=O)C3CC3)c(C(=O)NCC3CC3)c2C1 [Example 305, (5S)-5-[3-[(5-chloro-2-methyl-pyrazol-3-yl)amino]-1,2,4-triazol-4-yl]-2-(cyclopropanecarbonylamino)-N-(cyclopropylmethyl)-4,5,6,7-tetrahydrobenzothiophene-3-carboxamide] | < 1000 nM
Cc1ccc(N2CC[C@H](Nc3nncn3[C@H]3CCc4sc(NC(=O)C5CC5)c(C(=O)NCC5CC5)c4C3)C2)nn1 [Example 240, (5S)-2-cyclopropaneamido-N-(cyclopropylmethyl)-5-(3-{[(35)-1-(6-methylpyridazin-3-yl)pyrrolidin-3-yl]amino}-4H-1,2,4-triazol-4-yl)-4,5,6,7-tetrahydro-1-benzothiophene-3-carboxamide] | < 1000 nM
C[C@H]1C[C@H]1C(=O)Nc1sc2c(c1C(=O)NCC1CC1)C[C@@H](n1cnnc1Nc1cc(C(F)F)nn1C)CC2 (relative stereo) [Example 371, (5S)—N-(cyclopropylmethyl)-5-[3-[[5-(difluoromethyl)-2-methylpyrazol-3-yl]amino]-1,2,4-triazol-4-yl]-2-[[(1R*,2S*)-2-methylcyclopropanecarbonyl]amino]-4,5,6,7-tetrahydro-1-benzothiophene-3-carboxamide (*1R,2S or 1S,2R)] | < 1000 nM
CC1CC(NC(=O)c2c(NC(=O)C3CC3)sc3c2C[C@@H](n2cnnc2Nc2cc(OC(F)F)nn2C)CC3)C1 (stereo partly drawn) [Example 448, (5S)-2-(cyclopropanecarbonylamino)-5-[3-[[5-(difluoromethoxy)-2-methylpyrazol-3-yl]amino]-1,2,4-triazol-4-yl]-N-(3-methylcyclobutyl)-4,5,6,7-tetrahydro-1-benzothiophene-3-carboxamide] | < 1000 nM
Cn1nc(C(F)F)cc1Nc1nncn1[C@H]1CCc2sc(NC(=O)C3CC3)c(C(=O)N[C@@H]3CC34CC4)c2C1 [Example 496, (5S)-2-(cyclopropanecarbonylamino)-5-[3-[[5-(difluoromethyl)-2-methyl-pyrazol-3-yl]amino]-1,2,4-triazol-4-yl]-N-[(2R)-spiro[2.2]pentan-2-yl]-4,5,6,7-tetrahydrobenzothiophene-3-carboxamide] | < 1000 nM
Cc1nnc(-c2cc(Nc3nncn3[C@H]3CCc4sc(NC(=O)C5CC5)c(C(=O)NCC5CC5)c4C3)n(C)n2)o1 [Example 296, (5S)-2-cyclopropaneamido-N-(cyclopropylmethyl)-5-(3-{[1-methyl-3-(5-methyl-1,3,4-oxadiazol-2-yl)-1H-pyrazol-5-yl]amino}-4H-1,2,4-triazol-4-yl)-4,5,6,7-tetrahydro-1-benzothiophene-3-carboxamide] | < 1000 nM
Cn1nc(C(F)F)cc1Nc1nncn1[C@H]1CCc2sc(NC(=O)C3CCC3)c(C(=O)NCC3CC3)c2C1 [Example 359, (5S)-2-(cyclobutanecarbonylamino)-N-(cyclopropylmethyl)-5-[3-[[5-(difluoromethyl)-2-methylpyrazol-3-yl]amino]-1,2,4-triazol-4-yl]-4,5,6,7-tetrahydro-1-benzothiophene-3-carboxamide] | < 1000 nM
Cn1nc(OC(F)F)cc1Nc1nncn1[C@H]1CCc2sc(NC(=O)C3CC(F)(F)C3)c(C(=O)NC[C@H]3C[C@H]3F)c2C1 [Example 491, (5S)-2-[(3,3-difluorocyclobutanecarbonyl)amino]-5-[3-[[5-(difluoromethoxy)-2-methylpyrazol-3-yl]amino]-1,2,4-triazol-4-yl]-N-[[(1R,2R)-2-fluorocyclopropyl]methyl]-4,5,6,7-tetrahydro-1-benzothiophene-3-carboxamide] | < 1000 nM
CS(=N)(=O)c1cccc(Nc2nncn2[C@H]2CCc3sc(NC(=O)C4CC4)c(C(=O)NCC4CC4)c3C2)c1 (mixture of isomers) [Example 252, (5S)-2-(cyclopropanecarbonylamino)-N-(cyclopropylmethyl)-5-[3-[3-(methylsulfonimidoyl)anilino]-1,2,4-triazol-4-yl]-4,5,6,7-tetrahydrobenzothiophene-3-carboxamide] | < 1000 nM
Cn1nc(OC(F)F)cc1Nc1nncn1[C@H]1CCc2sc(NC(=O)C3CC3)c(C(=O)N[C@H]3C[C@@H](F)C3)c2C1 [Example 447, (5S)-2-(cyclopropanecarbonylamino)-5-[3-[[5-(difluoromethoxy)-2-methylpyrazol-3-yl]amino]-1,2,4-triazol-4-yl]-N-(cis-3-fluorocyclobutyl)-4,5,6,7-tetrahydro-1-benzothiophene-3-carboxamide] | < 1000 nM
COc1cc(Nc2nncn2[C@H]2CCc3sc(NC(=O)[C@H]4C[C@@H]4C)c(C(=O)N[C@@H]4CC45CC5)c3C2)n(C)n1 (relative stereo) [Example 465, (5S)-5-[3-[(5-methoxy-2-methyl-pyrazol-3-yl)amino]-1,2,4-triazol-4-yl]-2-[[(1S,2S)-2-methylcyclopropanecarbonyl]amino]-N-[(2R*)-spiro[2.2]pentan-2-yl]-4,5,6,7-tetrahydrobenzothiophene-3-carboxamide [* or 5]] | < 1000 nM
Cn1nc(OC(F)F)cc1Nc1nncn1[C@H]1CCc2sc(NC(=O)C3CC3)c(C(=O)NCC3CC3(F)F)c2C1 (mixture of isomers) [Example 458, (5S)-2-(cyclopropanecarbonylamino)-N-[(2,2-difluorocyclopropyl)methyl]-5-[3-[[5-(difluoromethoxy)-2-methylpyrazol-3-yl]amino]-1,2,4-triazol-4-yl]-4,5,6,7-tetrahydro-1-benzothiophene-3-carboxamide] | < 1000 nM
Cn1nc(C(F)(F)F)cc1Nc1nncn1[C@H]1CCc2sc(NC(=O)[C@H]3C[C@H]3F)c(C(=O)NC[C@H]3C[C@@H]3F)c2C1 [Example 395, (5S)-2-[[(1R,2R)-2-fluorocyclopropanecarbonyl]amino]-N-[[(1R,2S)-2-fluorocyclopropyl]methyl]-5-[3-[[2-methyl-5-(trifluoromethyl)pyrazol-3-yl]amino]-1,2,4-triazol-4-yl]-4,5,6,7-tetrahydro-1-benzothiophene-3-carboxamide] | < 1000 nM
Cn1nc(OC(F)F)cc1Nc1nncn1[C@H]1CCc2sc(NC(=O)C3CC3(F)F)c(C(=O)NC[C@@H]3C[C@@H]3F)c2C1 (single isomer, unassigned) [Example 281, (5S)-2-[[(1S*)-2,2-difluorocyclopropanecarbonyl]amino]-5-[3-[[5-(difluoromethoxy)-2-methyl-pyrazol-3-yl]amino]-1,2,4-triazol-4-yl]-N-[[(1S,2S)-2-fluorocyclopropyl]methyl]-4,5,6,7-tetrahydrobenzothiophene-3-carboxamide] | < 1000 nM
Cn1nc(OC(F)F)cc1Nc1nncn1[C@H]1CCc2sc(NC(=O)[C@H]3C[C@H](F)C3)c(C(=O)N[C@H]3CC34CC4)c2C1 (single isomer, unassigned) [Example 485] | < 1000 nM
COC(=O)N1CC[C@H](Nc2nncn2[C@H]2CCc3sc(NC(=O)C4CC4)c(C(=O)NCC4CC4)c3C2)C1 [Example 287, Methyl (3S)-3-[[4-[(5S)-2-(cyclopropanecarbonylamino)-3-(cyclopropylmethylcarbamoyl)-4,5,6,7-tetrahydrobenzothiophen-5-yl]-1,2,4-triazol-3-yl]amino]pyrrolidine-1-carboxylate] | < 1000 nM
[2H]C([2H])([2H])n1nc(C(F)F)cc1Nc1nncn1[C@H]1CCc2sc(NC(=O)C3CC3)c(C(=O)NCC3CC3)c2C1 [Example 403, (5S)-2-(cyclopropanecarbonylamino)-N-(cyclopropylmethyl)-5-[3-[[5-(difluoromethyl)-2-(trideuteriomethyl)pyrazol-3-yl]amino]-1,2,4-triazol-4-yl]-4,5,6,7-tetrahydrobenzothiophene-3-carboxamide] | < 1000 nM
C[S@@](=N)(=O)c1cccc(Nc2nncn2[C@H]2CCc3sc(NC(=O)C4CC4)c(C(=O)NCC4CC4)c3C2)c1 (single isomer, unassigned) [Example 254] | < 1000 nM
Cn1nc(C(F)F)cc1Nc1nncn1[C@H]1CCc2sc(NC(=O)C3CC(F)C3)c(C(=O)NCC3CC3)c2C1 (stereo partly drawn) [Example 353, (5S)—N-(cyclopropylmethyl)-5-[3-[[5-(difluoromethyl)-2-methylpyrazol-3-yl]amino]-1,2,4-triazol-4-yl]-2-[(3-fluorocyclobutanecarbonyl)amino]-4,5,6,7-tetrahydro-1-benzothiophene-3-carboxamide] | < 1000 nM
Cn1nc(C(F)F)cc1Nc1nncn1[C@H]1CCc2sc(NC(=O)[C@H]3C[C@H](F)C3)c(C(=O)NC[C@H]3CC3(F)F)c2C1 (relative stereo) [Example 472, (5S)—N-[[(1R*)-2,2-difluorocyclopropyl]methyl]-5-[3-[[5-(difluoromethyl)-2-methyl-pyrazol-3-yl]amino]-1,2,4-triazol-4-yl]-2-[trans-(3-fluorocyclobutanecarbonyl)amino]-4,5,6,7-tetrahydrobenzothiophene-3-carboxamide [* or S]] | < 1000 nM
Cn1nc(C(F)F)cc1Nc1nncn1[C@H]1CCc2sc(NC(=O)C3CC3)c(C(=O)NC3CC(F)(F)C3)c2C1 [Example 387, (5S)-2-(cyclopropanecarbonylamino)-N-(3,3-difluorocyclobutyl)-5-[3-[[5-(difluoromethyl)-2-methylpyrazol-3-yl]amino]-1,2,4-triazol-4-yl]-4,5,6,7-tetrahydro-1-benzothiophene-3-carboxamide] | < 1000 nM
